Data on one compound can be found in ChEMBL document CHEMBL5705899 (Biochem J, 2014).

Assay [1] has as its target Inhibitor of nuclear factor kappa-B kinase subunit epsilon (Homo sapiens) (UniProt Q14164). The assay is described as follows: Inhibition of recombinant human N-terminal GST-tagged IKKepsilon (1 to 716 residues) expressed in baculovirus infected Sf21 cells assessed as remaining activity at 1 uM using MBP as substrate incubated for 30 mins in presence of [gamma-33P]ATP by filter binding method relative to control.

Assay [2] has as its target Mitogen-activated protein kinase kinase kinase kinase 3 (Homo sapiens) (UniProt Q8IVH8). The assay is described as follows: Inhibition of recombinant human MAP4K3 (1 to 873 residues) expressed in baculovirus infected Sf21 cells assessed as remaining activity at 1 uM using MBP as substrate incubated for 30 mins in presence of [gamma-33P]ATP by filter binding method relative to control.

Molecules are shown by their SMILES.

Mitogen-activated protein kinase kinase kinase kinase 3 (Homo sapiens), sequence (Q8IVH8 whole entry, the tested form may be a part): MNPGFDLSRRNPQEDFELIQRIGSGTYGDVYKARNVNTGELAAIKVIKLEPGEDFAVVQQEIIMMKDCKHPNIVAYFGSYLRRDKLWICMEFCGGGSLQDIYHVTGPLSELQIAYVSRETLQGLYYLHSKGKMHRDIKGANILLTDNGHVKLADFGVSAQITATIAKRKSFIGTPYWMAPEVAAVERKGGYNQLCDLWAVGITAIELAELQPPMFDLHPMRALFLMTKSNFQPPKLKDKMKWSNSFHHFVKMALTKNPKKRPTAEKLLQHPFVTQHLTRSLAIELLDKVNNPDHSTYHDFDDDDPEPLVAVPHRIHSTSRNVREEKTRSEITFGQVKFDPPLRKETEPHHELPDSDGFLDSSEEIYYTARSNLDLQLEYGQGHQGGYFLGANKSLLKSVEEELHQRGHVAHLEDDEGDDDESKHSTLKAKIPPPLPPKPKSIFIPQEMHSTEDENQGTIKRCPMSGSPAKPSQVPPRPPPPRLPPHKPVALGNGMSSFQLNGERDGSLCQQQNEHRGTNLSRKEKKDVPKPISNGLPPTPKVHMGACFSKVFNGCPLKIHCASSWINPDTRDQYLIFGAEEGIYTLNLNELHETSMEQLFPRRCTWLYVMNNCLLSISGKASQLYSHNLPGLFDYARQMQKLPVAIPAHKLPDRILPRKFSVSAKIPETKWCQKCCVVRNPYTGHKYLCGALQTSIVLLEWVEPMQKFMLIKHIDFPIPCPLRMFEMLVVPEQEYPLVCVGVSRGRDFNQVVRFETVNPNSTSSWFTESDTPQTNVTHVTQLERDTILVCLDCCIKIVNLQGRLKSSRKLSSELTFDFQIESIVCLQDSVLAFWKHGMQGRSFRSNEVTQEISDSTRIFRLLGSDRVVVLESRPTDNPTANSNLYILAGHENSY
Inhibitor of nuclear factor kappa-B kinase subunit epsilon (Homo sapiens), sequence (Q14164 whole entry, the tested form may be a part): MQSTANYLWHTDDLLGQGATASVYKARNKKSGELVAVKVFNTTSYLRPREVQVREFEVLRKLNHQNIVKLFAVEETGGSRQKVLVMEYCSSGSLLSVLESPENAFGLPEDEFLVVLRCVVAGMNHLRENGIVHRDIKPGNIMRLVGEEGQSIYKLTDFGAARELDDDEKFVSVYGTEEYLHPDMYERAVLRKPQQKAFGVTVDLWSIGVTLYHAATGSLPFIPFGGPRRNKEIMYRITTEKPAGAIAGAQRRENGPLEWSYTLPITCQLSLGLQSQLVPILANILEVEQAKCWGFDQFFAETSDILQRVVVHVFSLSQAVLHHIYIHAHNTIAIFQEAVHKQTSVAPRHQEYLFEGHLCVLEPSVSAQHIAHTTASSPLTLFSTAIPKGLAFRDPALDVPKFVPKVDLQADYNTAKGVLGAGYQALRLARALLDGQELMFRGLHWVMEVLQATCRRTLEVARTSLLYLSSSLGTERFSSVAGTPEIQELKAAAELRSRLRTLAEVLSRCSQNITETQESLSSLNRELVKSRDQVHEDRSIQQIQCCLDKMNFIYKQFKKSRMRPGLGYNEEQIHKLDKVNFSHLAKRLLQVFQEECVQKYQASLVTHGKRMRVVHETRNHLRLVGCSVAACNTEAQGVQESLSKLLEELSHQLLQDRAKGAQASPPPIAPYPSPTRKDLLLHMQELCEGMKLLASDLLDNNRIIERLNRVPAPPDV

For the compound `CC(C)(O)CNc1ncc(-c2ccnc(Nc3ccnc(Cl)c3)n2)c(CC2CC2)n1`, the Activity in assay [1] turned out to be 103%; in assay [2], 117%.
